Tested on: Plasmodium berghei
Experiment: Luciferase/luciferin-expressing antifolate-resistant parasites were used to infect a culture of HepG2 cells that were pre-incubated with compounds. Infected hepatocytes emit light due to the luciferase reaction. Assay results are presented as the percent inhibition of light emission compared to control. […]
Format: functional
Conditions: sporozoite; for IC90: read-out: LUCIFERASE INFECTION ASSAY - IC90
[1] = read-out: LUCIFERASE INFECTION ASSAY - IC50

SMILES | IC90 | also measured
Cc1ccc2nc(NC(=O)c3cc(F)ccc3F)c(C(=O)NC3CCCC3)n2c1 | 3 µM | IC50 (HEPG2TOX_HILL_SLOPE 2.24, HEPG2TOX_R_SQUARED 0.919, PBLUC_HILL_SLOPE 5.13, PBLUC_R_SQUARED 0.447, read-out: LUCIFERASE INFECTION ASSAY - IC50): 1.96 µM
CC(=C\c1ccc(Cl)cc1)/C(C)=N/O [AP18 5] | 5.3 µM | IC50 (HEPG2TOX_HILL_SLOPE 1.12, HEPG2TOX_R_SQUARED 0.98, PBLUC_HILL_SLOPE 2.33, PBLUC_R_SQUARED 0.772, read-out: LUCIFERASE INFECTION ASSAY - IC50): 2.07 µM
COc1ccc(Nc2c(Cl)cc(OC)cc2Cl)cc1 | 3.85 µM | IC50 (HEPG2TOX_HILL_SLOPE 2.37, HEPG2TOX_R_SQUARED 0.991, PBLUC_HILL_SLOPE 4.31, PBLUC_R_SQUARED 0.544, read-out: LUCIFERASE INFECTION ASSAY - IC50): 2.31 µM
Fc1cccc(Nc2cc3c(cn2)ncn3Cc2ccccc2)c1 | > 10 µM | IC50 (HEPG2TOX_HILL_SLOPE 2.72, HEPG2TOX_R_SQUARED 0.764, PBLUC_HILL_SLOPE 2.07, PBLUC_R_SQUARED 0.581, read-out: LUCIFERASE INFECTION ASSAY - IC50): 8.26 µM
Cc1ccc(S(=O)(=O)Oc2c(C(C)C)cc(Nc3cc(C)ccc3C)cc2C(C)C)cc1 | > 10 µM | IC50 (HEPG2TOX_HILL_SLOPE 0.156, HEPG2TOX_R_SQUARED 0.126, PBLUC_HILL_SLOPE 13.1, PBLUC_R_SQUARED 0.436, read-out: LUCIFERASE INFECTION ASSAY - IC50): 9 µM
COc1ccc(OCCCC(=O)N(c2nc3ccccc3s2)c2cc(C(F)(F)F)ccc2Cl)cc1 | > 10 µM | IC50 [1]: > 10 µM
CCOC(=O)c1sc2ncnc(NCCC(O)(c3ccc(C)o3)C(F)(F)F)c2c1C (stereo not given) | 3.68 µM | IC50 (HEPG2TOX_HILL_SLOPE 2.98, HEPG2TOX_R_SQUARED 0.521, PBLUC_HILL_SLOPE 13.8, PBLUC_R_SQUARED 0.46, read-out: LUCIFERASE INFECTION ASSAY - IC50): 3.14 µM
COc1cccc2c1N(S(=O)(=O)c1ccccc1C(F)(F)F)CCC2 | > 2 µM | IC50 [1]: > 2 µM
O=c1c(Cl)c(Cl)cnn1Cc1nnc(-c2ccc(Cl)cc2)o1 | > 10 µM | IC50 (FFLUC_HILL_SLOPE 3.65, FFLUC_R_SQUARED 0.9, HEPG2TOX_HILL_SLOPE 4.48, HEPG2TOX_R_SQUARED 0.522, PBLUC_HILL_SLOPE 7.32, PBLUC_R_SQUARED 0.182, read-out: LUCIFERASE INFECTION ASSAY - IC50): 7.44 µM
CC(C)c1ccc(NC(=O)c2snc3ccc(Cl)cc23)cc1 | 6.63 µM | IC50 (HEPG2TOX_HILL_SLOPE 2.78, HEPG2TOX_R_SQUARED 0.915, PBLUC_HILL_SLOPE 3.55, PBLUC_R_SQUARED 0.653, read-out: LUCIFERASE INFECTION ASSAY - IC50): 3.57 µM
O=C(Nc1nc2ccccc2[nH]1)C1CCN(c2ncc(C(F)(F)F)cc2Cl)CC1 | 3.95 µM | IC50 (PBLUC_HILL_SLOPE 12.1, PBLUC_R_SQUARED 0.351, read-out: LUCIFERASE INFECTION ASSAY - IC50): 3.29 µM
Nc1ccc(-c2cn3c(-c4ccc(Oc5ccccc5)cc4)cnc3cn2)cn1 | > 8.7 µM | IC50 (HEPG2TOX_HILL_SLOPE 7.27, HEPG2TOX_R_SQUARED 0.167, PBLUC_HILL_SLOPE 11.9, PBLUC_R_SQUARED 0.186, read-out: LUCIFERASE INFECTION ASSAY - IC50): 7.28 µM
CCn1cc(C(=O)OCC(=O)N2N=C3/C(=C/c4ccccc4)CCCC3C2c2ccccc2)c(=O)c2ccc(C)nc21 (stereo not given) | 9.47 µM | IC50 (FFLUC_HILL_SLOPE 4.43, FFLUC_R_SQUARED 0.284, HEPG2TOX_HILL_SLOPE 6.55, HEPG2TOX_R_SQUARED 0.133, PBLUC_HILL_SLOPE 3.84, PBLUC_R_SQUARED 0.345, read-out: LUCIFERASE INFECTION ASSAY - IC50): 5.34 µM
OCCNCc1cc(Br)ccc1OCc1ccc(F)cc1 | 3.12 µM | IC50 (PBLUC_HILL_SLOPE 16.8, PBLUC_R_SQUARED 0.362, read-out: LUCIFERASE INFECTION ASSAY - IC50): 2.74 µM
COc1cccc(-c2noc(COC(=O)c3ccc(C)s3)n2)c1 | > 10 µM | IC50 [1]: > 10 µM
COc1ccc(F)cc1-c1ccnc2n[nH]c(-c3ccc(Cl)cc3)c12 | > 10 µM | IC50 (HEPG2TOX_HILL_SLOPE 2.34, HEPG2TOX_R_SQUARED 0.976, PBLUC_HILL_SLOPE 1.09, PBLUC_R_SQUARED 0.396, read-out: LUCIFERASE INFECTION ASSAY - IC50): 1.84 µM
CO/N=C(/CS(=O)(=O)c1ccc(OC)cc1)c1ccc(Cl)cc1 | > 9.33 µM | IC50 (HEPG2TOX_HILL_SLOPE 2.67, HEPG2TOX_R_SQUARED 0.896, PBLUC_HILL_SLOPE 4.33, PBLUC_R_SQUARED 0.342, read-out: LUCIFERASE INFECTION ASSAY - IC50): 6.46 µM
CCOc1cc(C(=O)NCCNC(=O)C(C)C)cc(OCC)c1OCC | > 10 µM | IC50 [1]: > 10 µM

SMILES | IC90 | also measured
CS(=O)(=O)c1ccc(N2CCN(c3ccnc4cc(Cl)ccc34)CC2)c([N+](=O)[O-])c1 | 8.81 µM | IC50 (HEPG2TOX_HILL_SLOPE 8.04, HEPG2TOX_R_SQUARED 0.676, PBLUC_HILL_SLOPE 3.39, PBLUC_R_SQUARED 0.378, read-out: LUCIFERASE INFECTION ASSAY - IC50): 4.61 µM
O=S(=O)(c1ccc(Cl)c(NC(=S)N/N=C/c2ccc3ncccc3c2)c1)N1CCOCC1 | > 10 µM | IC50 (PBLUC_HILL_SLOPE 2.75, PBLUC_R_SQUARED 0.637, read-out: LUCIFERASE INFECTION ASSAY - IC50): 5.55 µM
O=S(=O)(NC1CCCCCCC1)c1ccc(S(=O)(=O)C(F)F)cc1 | > 10 µM | IC50 (HEPG2TOX_HILL_SLOPE 11.1, HEPG2TOX_R_SQUARED 0.22, read-out: LUCIFERASE INFECTION ASSAY - IC50): > 10 µM
COc1cc(/C=C(/C(=O)OCC(=O)NC2CCCCC2C)c2ccc(-c3ccccc3)cc2)cc(OC)c1OC (stereo not given) | 3.8 µM | IC50 (HEPG2TOX_HILL_SLOPE 6.06, HEPG2TOX_R_SQUARED 0.736, PBLUC_HILL_SLOPE 16.1, PBLUC_R_SQUARED 0.664, read-out: LUCIFERASE INFECTION ASSAY - IC50): 3.32 µM
O=C(c1cnc(Nc2cccc(Oc3ccccc3)c2)[nH]1)c1ccccc1O | 1.08 µM | IC50 (HEPG2TOX_HILL_SLOPE 1.38, HEPG2TOX_R_SQUARED 0.947, PBLUC_HILL_SLOPE 15.8, PBLUC_R_SQUARED 0.824, read-out: LUCIFERASE INFECTION ASSAY - IC50): 0.938 µM
CC(C)NC(=O)c1c(NC(=O)c2ccc(Cl)cc2Cl)nc2ccccn12 | 3.78 µM | IC50 (FFLUC_HILL_SLOPE 0.259, FFLUC_R_SQUARED 0.0893, HEPG2TOX_HILL_SLOPE 15, HEPG2TOX_R_SQUARED 0.814, PBLUC_HILL_SLOPE 11.2, PBLUC_R_SQUARED 0.466, read-out: LUCIFERASE INFECTION ASSAY - IC50): 3.1 µM
CCCCc1[nH]nc2ccnc(-c3ccc(OC)c(OC)c3)c12 | 1.3 µM | IC50 [1]: 0.979 µM
Cc1c(C(=O)N2CCCCC2)sc2nc(-c3ccc(Cl)cc3)nn12 | 8.36 µM | IC50 (FFLUC_HILL_SLOPE 28.1, FFLUC_R_SQUARED 0.294, PBLUC_HILL_SLOPE 1.44, PBLUC_R_SQUARED 0.531, read-out: LUCIFERASE INFECTION ASSAY - IC50): 1.82 µM
O=C(CSc1ncnc2ccccc12)NN1C(=O)NC(c2ccccc2)(c2ccccc2)C1=O | > 10 µM | IC50 [1]: > 10 µM
COCCN1COc2c(cc(Cl)c3cccnc23)C1 | 5.37 µM | IC50 (HEPG2TOX_HILL_SLOPE 3.55, HEPG2TOX_R_SQUARED 0.927, PBLUC_HILL_SLOPE 12, PBLUC_R_SQUARED 0.223, read-out: LUCIFERASE INFECTION ASSAY - IC50): 4.47 µM
O=C(Nc1nc2ccccn2c1C(=O)NC1CCCC1)c1ccc(Cl)cc1Cl | 2.66 µM | IC50 (HEPG2TOX_HILL_SLOPE 1.22, HEPG2TOX_R_SQUARED 0.989, PBLUC_HILL_SLOPE 22.2, PBLUC_R_SQUARED 0.579, read-out: LUCIFERASE INFECTION ASSAY - IC50): 2.41 µM
O=c1[nH]c2ccccc2c(-c2ccccc2)c1SCc1ccc2c(c1)OCO2 | > 10 µM | IC50 (FFLUC_HILL_SLOPE 8.09, FFLUC_R_SQUARED 0.216, HEPG2TOX_HILL_SLOPE 4.47, HEPG2TOX_R_SQUARED 0.957, PBLUC_HILL_SLOPE 2.12, PBLUC_R_SQUARED 0.535, read-out: LUCIFERASE INFECTION ASSAY - IC50): 4.38 µM
CCc1nnc(SCc2cc(=O)n3c(C)csc3n2)[nH]1 | > 10 µM | IC50 (FFLUC_HILL_SLOPE 120, FFLUC_R_SQUARED 0.18, read-out: LUCIFERASE INFECTION ASSAY - IC50): > 10 µM
c1cnc2ccc(-c3cnc4cnc(-c5ccsc5)cn34)cc2c1 | > 10 µM | IC50 (HEPG2TOX_HILL_SLOPE 5.76, HEPG2TOX_R_SQUARED 0.0288, PBLUC_HILL_SLOPE 1.24, PBLUC_R_SQUARED 0.576, read-out: LUCIFERASE INFECTION ASSAY - IC50): 3.87 µM
Cc1cccc(C(C)C)c1NC(=O)C(C)Sc1nc2scc(-c3ccccc3Cl)c2c(=O)n1C (stereo not given) | 1.19 µM | IC50 (HEPG2TOX_HILL_SLOPE 0.0632, HEPG2TOX_R_SQUARED 0.325, PBLUC_HILL_SLOPE 16, PBLUC_R_SQUARED 0.687, read-out: LUCIFERASE INFECTION ASSAY - IC50): 1.03 µM
Cc1cc(C)nc(N/N=C2/CCCC/C2=C\c2ccccc2)n1 | > 10 µM | IC50 [1]: > 10 µM
c1ccc(Nc2nc(-c3ccc4c(c3)CCC4)cs2)nc1 | > 10 µM | IC50 (PBLUC_HILL_SLOPE 1.40, 0.464, PBLUC_R_SQUARED 0.303, 0.681, read-out: LUCIFERASE INFECTION ASSAY - IC50): 4.84 µM
